Experimental data from patent publication US20240382629A1, “HETEROBIVALENT AND HOMOBIVALENT AGENTS TARGETING FIBROBLAST ACTIVATION PROTEIN ALPHA AND/OR PROSTATE-SPECIFIC MEMBRANE ANTIGEN” (The Johns Hopkins University, priority 2021, published 2024).
Several values for one entry are separate records, joined by “and”; a condition that tells them apart may be missing. Equal values may be shown once.

Assay: Biodistribution of representative compounds ([^18F]Sri-07-56, [^18F]Sri-07-52, [^18F]JHU1221823, [^18F]FAPI-74), tissue % ID/g with carrier or blocker
Type: in vivo, mouse
Details: 20 μCi per mouse; for Bladder % ID/g / Blood % ID/g / Brain % ID/g / Fat % ID/g / Femur % ID/g / Heart % ID/g / Kidney % ID/g / Large intestine % ID/g / Liver % ID/g / Lung % ID/g / Muscle % ID/g / Pancreas % ID/g / Salivery gland % ID/g / Small intestine % ID/g / Spleen % ID/g / Stomach % ID/g / Tumor % ID/g: individual mice
Text: Biodistribution of Representative Compounds

Structure (SMILES): N#C[C@@H]1CCCN1C(=O)CNC(=O)c1ccnc2ccc(OCCCNC(=O)CCOCCOCCOCCOCCNC(=O)[C@H](CCCCNC(=O)c3ccc([18F])nc3)NC(=O)CN3CCN(CC(=O)O)CCN(CC(=O)O)CCN(CC(=O)O)CC3)cc12 [[^18F]JHU1221823]
- Bladder % ID/g Mean (60 min): 4.53 % ID/g
- Blood % ID/g Mean (60 min): 9.54 % ID/g
- Brain % ID/g Mean (60 min): 0.22 % ID/g
- Fat % ID/g Mean (60 min): 1.07 % ID/g
- Femur % ID/g Mean (60 min): 2.83 % ID/g
- Heart % ID/g Mean (60 min): 4.65 % ID/g
- Kidney % ID/g Mean (60 min): 2.73 % ID/g
- Large intestine % ID/g Mean (60 min): 1.49 % ID/g
- Liver % ID/g Mean (60 min): 2.99 % ID/g
- Lung % ID/g Mean (60 min): 5.72 % ID/g
- Muscle % ID/g Mean (60 min): 1.78 % ID/g
- Pancreas % ID/g Mean (60 min): 2.14 % ID/g
- Salivary gland % ID/g Mean (60 min): 6.93 % ID/g
- Small intestine % ID/g Mean (60 min): 3.02 % ID/g
- Spleen % ID/g Mean (60 min): 2.15 % ID/g
- Stomach % ID/g Mean (60 min): 1.14 % ID/g
- Tumor % ID/g Mean (60 min): 5.71 % ID/g
- Bladder % ID/g (60 min): 6.41 % ID/g and 2.64 % ID/g
- Blood % ID/g (60 min): 9.28 % ID/g and 9.80 % ID/g
- Brain % ID/g (60 min): 0.23 % ID/g and 0.22 % ID/g
- Fat % ID/g (60 min): 0.47 % ID/g and 1.68 % ID/g
- Femur % ID/g (60 min): 2.55 % ID/g and 3.11 % ID/g
- Heart % ID/g (60 min): 4.31 % ID/g and 4.98 % ID/g
- Kidney % ID/g (60 min): 2.70 % ID/g and 2.77 % ID/g
- Large intestine % ID/g (60 min): 1.29 % ID/g and 1.69 % ID/g
- Liver % ID/g (60 min): 2.68 % ID/g and 3.29 % ID/g
- Lung % ID/g (60 min): 5.53 % ID/g and 5.91 % ID/g
- Muscle % ID/g (60 min): 1.79 % ID/g and 1.78 % ID/g
- Pancreas % ID/g (60 min): 1.62 % ID/g and 2.66 % ID/g
- Salivery gland % ID/g (60 min): 7.44 % ID/g and 6.43 % ID/g
- Small intestine % ID/g (60 min): 2.59 % ID/g and 3.46 % ID/g
- Spleen % ID/g (60 min): 1.86 % ID/g and 2.43 % ID/g
- Stomach % ID/g (60 min): 0.84 % ID/g and 1.45 % ID/g
- Tumor % ID/g (60 min): 4.35 % ID/g and 7.05 % ID/g
- Bladder % ID/g Mean (120 min): 1.92 % ID/g
- Blood % ID/g Mean (120 min): 6.28 % ID/g
- Brain % ID/g Mean (120 min): 0.18 % ID/g
- Fat % ID/g Mean (120 min): 1.45 % ID/g
- Femur % ID/g Mean (120 min): 1.61 % ID/g
- Heart % ID/g Mean (120 min): 3.49 % ID/g
- Kidney % ID/g Mean (120 min): 1.93 % ID/g
- Large intestine % ID/g Mean (120 min): 1.38 % ID/g
- Liver % ID/g Mean (120 min): 2.18 % ID/g
- Lung % ID/g Mean (120 min): 3.65 % ID/g
- Muscle % ID/g Mean (120 min): 1.16 % ID/g
- Pancreas % ID/g Mean (120 min): 4.67 % ID/g
- Salivary gland % ID/g Mean (120 min): 8.11 % ID/g
- Small intestine % ID/g Mean (120 min): 2.04 % ID/g
- Spleen % ID/g Mean (120 min): 1.58 % ID/g
- Stomach % ID/g Mean (120 min): 1.24 % ID/g
- Tumor % ID/g Mean (120 min): 2.91 % ID/g
- Bladder % ID/g (120 min): 2.63 % ID/g and 1.21 % ID/g
- Blood % ID/g (120 min): 5.77 % ID/g and 6.78 % ID/g
- Brain % ID/g (120 min): 0.19 % ID/g and 0.17 % ID/g
- Fat % ID/g (120 min): 0.97 % ID/g and 1.93 % ID/g
- Femur % ID/g (120 min): 1.71 % ID/g and 1.91 % ID/g
- Heart % ID/g (120 min): 3.18 % ID/g and 3.79 % ID/g
- Kidney % ID/g (120 min): 1.61 % ID/g and 2.24 % ID/g
- Large intestine % ID/g (120 min): 1.40 % ID/g and 1.36 % ID/g
- Liver % ID/g (120 min): 1.94 % ID/g and 2.42 % ID/g
- Lung % ID/g (120 min): 3.13 % ID/g and 4.16 % ID/g
- Muscle % ID/g (120 min): 1.18 % ID/g and 1.15 % ID/g
- Pancreas % ID/g (120 min): 4.03 % ID/g and 5.32 % ID/g
- Salivery gland % ID/g (120 min): 5.17 % ID/g and 11.05 % ID/g
- Small intestine % ID/g (120 min): 1.88 % ID/g and 2.21 % ID/g
- Spleen % ID/g (120 min): 1.49 % ID/g and 1.67 % ID/g
- Stomach % ID/g (120 min): 1.11 % ID/g and 1.37 % ID/g
- Tumor % ID/g (120 min): 2.88 % ID/g and 2.94 % ID/g
